Experimental data from patent US7417043B2, “Modulators of dopamine neurotransmission” (NeuroSearch Sweden AB, priority 1999, dated 2008).
Structures can show the parent of a compound that is named as a salt.

How the values were obtained:
[1] = test system: 3,4-dihydroxyphenylacetic acid in the striatum; experiment: In vivo test: neurochemistry, DOPAC in brain tissue; design: species or system rat; conditions: for 3,4-dihydroxyphenylacetic acid in the striatum: rat
Excerpt: (§1) In vivo Test: Neurochemistry
(§2) After the behavioral activity sessions the rats were decapitated and their brains rapidly taken out and put on an ice-cold petri-dish. The limbic forebrain, the striatum, the frontal cortex and the remaining hemispheral parts of each rat were dissected and frozen. Each brain part was subsequently analyzed with respect to its content of monoamines and their metabolites. The monoaminergic indices analyzed were dopamine (DA), 3,4-dihydroxyphenylacetic acid (DOPAC), homovanillic acid (HVA), 3-methoxytyramine (3-MT), serotonin (5-HT), 5-hydroxyindole acetic acid ([…]), and noradrenaline (NA).

[2] = test system: non-pre-treated rat; experiment: In vivo test: behavior, motility meter, non-pre-treated rats; conditions: for behavioral (motor) activity: 60 min session
[3] = test system: serotonin (5-HT); experiment: In vivo test: neurochemistry, serotonin in brain tissue; conditions: rat, 50 μmol/kg s.c.
Excerpt: as §1
as §2, with “(NA). All monoaminergic indices in the dissected tissue were analyzed by means of HPLC with electrochemical detection as described by Svensson K, et al., 1986, Naunynschmiedeberg's Arch Pharmacol 334: 234-245 and references cited therein.” for “(NA).”

[4] = test system: serotonin behavioral syndrome; experiment: Serotonin behavioral syndrome; format: in vivo; conditions: rat
[5] = test system: 5-hydroxyindoleacetic acid in the striatum; experiment: In vivo test: neurochemistry, 5-hydroxyindoleacetic acid in brain tissue; conditions: rat; for 5-hydroxyindoleacetic acid in the striatum: 50 μmol/kg s.c.
Excerpt: as §1
as §2, with “(NA). All monoaminergic indices in the dissected tissue were analyzed by means of HPLC with electrochemical detection as described by Svensson K, et al., 1986, Naunynschmiedeberg's Arch Pharmacol 334: 234-245 and references cited therein.” for “(NA).”

[6] = target: T1, 5-HT1A receptor (Homo sapiens, UniProt P08908); conditions: reported in WO 93/00313; cited from earlier work
T1 sequence (P08908 1-422): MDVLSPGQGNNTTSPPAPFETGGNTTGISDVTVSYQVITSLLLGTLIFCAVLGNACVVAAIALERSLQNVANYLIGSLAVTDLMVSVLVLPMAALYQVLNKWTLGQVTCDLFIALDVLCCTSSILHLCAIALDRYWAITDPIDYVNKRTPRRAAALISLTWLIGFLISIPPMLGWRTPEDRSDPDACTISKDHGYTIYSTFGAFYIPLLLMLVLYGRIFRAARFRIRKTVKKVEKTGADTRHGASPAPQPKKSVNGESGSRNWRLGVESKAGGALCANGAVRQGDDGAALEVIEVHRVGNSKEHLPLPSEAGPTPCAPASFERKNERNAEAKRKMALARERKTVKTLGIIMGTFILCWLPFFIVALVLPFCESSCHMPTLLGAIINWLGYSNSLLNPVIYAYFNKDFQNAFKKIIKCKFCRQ

[7] = test system: rats pre-treated with d-amphetamine; experiment: In vivo test: behavior, d-amphetamine induced hyperactivity
[8] = test system: sigma receptor; conditions: 10 μmol/L, rat brain membranes
[9] = test system: rats pre-treated with dizolcipine (Mk-801); conditions: Mk-801 0,7 mg/kg i.p.; test compound 50 μmol/kg sc
[10] = test system: habituated rats; conditions: animals habituated to the motilitymeter box, 50 μmol/kg s.c.
[11] = non-pre-treated rat, 50 μmol/kg s.c.
[12] = non-pre-treated rat, 33 μmol/kg (s.c.)

## CCCN1CCN(c2cccc(S(C)(=O)=O)c2)CC1 (as salt: HCl)
other
  melting point: 233 °C

## CCCN1CCC(c2cccc(C(F)(F)F)c2)CC1 (as salt: HCl)
other
  melting point: 195 °C

## CCCCN1CCC(c2cccc(C(F)(F)F)c2)CC1 (as salt: HCl) [Example 5, 1-Butyl-4-(3-trifluoromethyl-phenyl)piperidine]
other
  melting point: 222 °C

## CCN1CCC(c2cccc(S(C)(=O)=O)c2)CC1 (as salt: HCl) [Example 8, 4-(3-Methanesulfonyl-phenyl)-1-ethyl-piperidine]
other
  melting point: 158 °C

## CC(C)N1CCC(c2cccc(S(C)(=O)=O)c2)CC1 (as salt: HCl) [Example 9, 1-Isopropyl-4-(3-methanesulfonyl-phenyl)-piperidine]
other
  melting point: 220 °C

## CC(C)CN1CCC(c2cccc(S(C)(=O)=O)c2)CC1 (as salt: HCl) [Example 11, 1-Isobutyl-4-(3-methanesulfonyl-phenyl)-piperidine]
other
  melting point: 212 °C

## CCCN1CCC(c2cccc(C#N)c2)CC1 (as salt: fumarate)
other
  melting point: 122 °C

## CCCN1CCN(c2cccc(OS(C)(=O)=O)c2)CC1 (as salt: fumarate) [Example 17, Methanesulfonic acid 3-(4-propyl-piperazin-1-yl)-phenyl ester]
other
  melting point: 143 to 144 °C

## CCCN1CCN(c2cccc(C(C)=O)c2)CC1 (as salt: oxalate)
other
  melting point: 119 °C

## CCCN1CCN(c2ccccc2OC)CC1 [1-(2-methoxy-phenyl)-4-propyl piperazine]
[1]; 50 μmol/kg s.c.
  3,4-dihydroxyphenylacetic acid in the striatum: 3836±65 ng/g tissue
[2]; [11]
  behavioral (motor) activity: 67±34 cm/60 min

## CS(=O)(=O)c1cccc(C2CCN(Cc3ccccc3)CC2)c1 [1-benzyl-4-(3-methanesulfonyl-phenyl)-piperidine]
[3]
  serotonin (5-HT): 345±18 ng/g tissue
[4]
  serotonin behavioral syndrome: induces the serotonin behavioral syndrome
[5]
  5-hydroxyindoleacetic acid in the striatum: 487±7 ng/g tissue

## FC(F)(F)c1cccc(N2CCN(CCc3ccccc3)CC2)c1 [1-phenethyl-4-(3-trifluoromethyl-phenyl)-piperazine]
[3]
  serotonin (5-HT): 282±6 ng/g tissue
[1]; 50 μmol/kg s.c.
  3,4-dihydroxyphenylacetic acid in the striatum: 1406±77 ng/g tissue
[6]
  IC50: 20.3 nM
[5]
  5-hydroxyindoleacetic acid in the striatum: 289±16 ng/g tissue

## CCCN1CCN(c2ccccc2)CC1 [1-phenyl-4-propyl-piperazine]
[2]; [12]
  behavioral activity: 1923±204 cm/60 min

## CCCN1CCN(c2cccc(C(F)(F)F)c2)CC1 [1-propyl-4-(3-triflouro-methyl-phenyl) piperazine]
[1]; 50 μmol/kg s.c.
  3,4-dihydroxyphenylacetic acid in the striatum: 3358±162 ng/g tissue
[2]; [11]
  behavioral (motor) activity: 271±137 cm/60 min

## CS(=O)(=O)c1cccc(N2CCN(CCO)CC2)c1 [2-[4-(3-methanesulfonyl-phenyl)piperazin-1-yl]-ethanol]
[1]; 33 μmol/kg s.c.
  3,4-dihydroxyphenylacetic acid in the striatum: 1239±162 ng/g tissue
[2]; [12]
  behavioral activity: 3782±962 cm/60 min

## Oc1cccc(C2CCN(Cc3ccccc3)CC2)c1 [3-(1-Benzyl-piperidin-4-yl)-phenol, 3-(1-benzyl-piperidin-4-yl)-phenol]
[3]; limbic region
  serotonin in the limbic region (5-HT): 677±20 ng/g tissue
[5]
  5-hydroxyindoleacetic acid in the striatum: 492±26 ng/g tissue

## CCCN1CCN(c2cccc(C#N)c2)CC1 [3-(4-Propyl-piperazine-1-yl)-benzonitrile]
[1]; 100 μmol/kg s.c.
  3,4-dihydroxyphenylacetic acid in the striatum: 4498±243 ng/g tissue
[5]; 100 μmol/kg s.c.
  5-hydroxyindole acetic acid: 484±26 ng/g tissue
[2]; rat, 100 μmol/kg s.c.
  behavioral activity: 634±266 cm/60 min

## CCCN1CCC(c2ccc(S(C)(=O)=O)cc2)CC1 [4-(4-methanesulphonyl-phenyl)-1-propyl piperidine]
[1]; 50 μmol/kg s.c.
  3,4-dihydroxyphenylacetic acid in the striatum: 928±51 ng/g tissue

## CCCN1CCC(c2ccccc2)CC1 [4-phenyl-1-propyl-piperidine]
[7]; d-amphetamine pre-treated, test compound 33 μmol/kg
  behavioral activity in the d-amphetamine stimulated: 13764±2919 cm/60 min
[1]; 33 μmol/kg s.c.
  3,4-dihydroxyphenylacetic acid in the striatum: 1190±70 ng/g tissue
[2]; [12]
  behavioral activity: 2553±471 cm/60 min

## CCCN1CCC(c2cccc(S(C)(=O)=O)c2)CC1 [Example 6, 4-(3-Methanesulfonyl-phenyl)-1-propyl-piperidine]
[8]
  inhibition of [3H]-DTG binding: < 50%
[7]; d-amphetamine 1.5 mg/kg s.c., test compound 50 μmol/kg s.c.
  d-Amphetamine hyperactivity: 1839±344 cm/60 min
[1]; habituated animals, 50 μmol/kg s.c.
  4-dihydroxyphenylacetic acid in the striatum: 2074±144 ng/g tissue
[1]; 50 μmol/kg s.c.
  3,4-dihydroxyphenylacetic acid in the striatum: 1703±19 ng/g tissue
[9]
  behavioral activation induced by dizolcipine (Mk-801): 18197±1389 cm/60 min
[2]; [11]
  behavioral (motor) activity: 2879±398 cm/60 min
[10]
  behavioral activity: 1243±72 cm/60 min

## CCCN1CCC(c2cccc(OS(C)(=O)=O)c2)CC1 [Example 14, Methanesulfonic acid 3-(1-propyl-piperidin-4-yl)-phenyl ester]
[1]; 50 μmol/kg s.c.
  3,4-dihydroxyphenylacetic acid in the striatum: 3208±236 ng/g tissue
[2]; rat, 50 μmol/kg s.c., 30 min session
  behavioral activity: 2126±240 cm/30 min

## Br.CCCN1CCC(c2cccc(O)c2)CC1 [preparation 14, 3-(1-Propyl-piperidin-4-yl)-phenol×HBr]
[1]; 50 μmol/kg s.c.
  3,4-dihydroxyphenylacetic acid in the striatum: 1169±42 ng/g tissue
